Measurements as given in paper PMC9260667, “Thioredoxin Reductase Inhibitors as Potential Antitumors: Mercury Compounds Efficacy in Glioma Cells” (Frontiers in Molecular Biosciences, 2022).
Like-named read-outs stand apart in the source and are kept apart here.

Tests used:
GL261 cells [1] = assay: cells; assay type: cell-based, mouse
Method: Cells were seeded in 96-well plates for 24 h prior to the addition of TmHg, EtHg (1 µM), TMZ (200, 400, and 800 µM), and for the 48 h end point the co-exposure of TMZ 200 µM with 1 µM EtHg and 1 µM TmHg. After exposure for 24 and 48 h, the supernatant was transferred to a fresh plate and a lysis buffer (10×) (Thermo Scientific™ Pierce™) was added to wells containing cells and incubated at 37°C for 45 min. LDH activity was evaluated using LDH Cytotoxicity Assay Kit from Thermo Scientific™ Pierce™ in the supernatant and lysate by the addition of lactate (substrate), a tetrazolium salt, and NAD^+ (cofactor) (Reaction Mixture), according to the manufacturer’s instructions. Following 30 min of incubation in the dark at room temperature, LDH release was assessed by measuring the absorbance at 490 and 680 nm in a microplate reader (Omega BMG LABTECH). The release of LDH was quantified as the ratio between the amount in the supernatant and total LDH (supernatant + lysate) ([Branco et al., 2017]).

GL261 cells [2] = assay: cells; assay type: cell-based, mouse; conditions: for IC50: Mus musculus, read-out: IC50 (MTT assay)
Method: The effect of TmHg and EtHg on the viability of GL261 and N9 cells was evaluated by the MTT assay as previously described ([Branco et al., 2014]). Briefly, cells (5 × 10^3) were seeded in 96-well plates (Nunc®) and incubated at 37°C for 24 h to allow proper adherence to plates. Afterwards, TmHg and EtHg (0, 0.5, 1, 2.5, and 5 μM) were added to wells. The same procedure was carried out to evaluate the effect of TMZ on the cellular viability of GL261 and DMSO at a final concentration of 0.1% was added as a control group. For co-exposure, the addition of the mercury compounds (EtHg—1 and 2 μM; TmHg—1 and 2 µM) under study followed the addition of TMZ (200 µM).
Cell viability was determined at the time of addition of the compounds (0 h) and after 24, 48, and 72 h of exposure by adding MTT to a final concentration of 400 μg/ml per well and incubating at 37°C for 4 h. After incubation, the medium was removed, and the formazan crystals were dissolved in a 4:1 DMSO/glycine buffer (pH 10.5). After shaking for 15 min, the viability was evaluated through the measurement of formazan absorption at 550 nm on a microplate reader (Zenyth 3100, Anthos Labtec Instruments) ([Branco et al., 2014]).
The IC50 is the concentration of a compound that decreases MTT reduction by 50% relative to the non-treated control at each time point.

[3] = set-up: method as in JECFA 2004, WHO Technical Report Series 922; conditions: ref JECFA 2004, WHO Technical Report Series 922; cited from earlier work

SMILES | change of LDH levels (GL261 cells [1]; GL261, 200 µM TMZ alone) | EC50 (GL261 cells [1]; Mus musculus, GL261, 48 h exposure, read-out: EC50 (LDH assay)) [µM] | reduction of viability (MTT) (GL261 cells [2]; GL261, 24 h exposure, maximal effect) [%] | IC50 (GL261 cells [2]; GL261, 48 h exposure) [µM] | IC50 (GL261 cells [2]; GL261, 72 h exposure) [µM] | safe concentration of intake without appearance of neurological disorders [3] [µg/Kg b.w./week]
Cn1nnc2c(C(N)=O)ncn2c1=O [TMZ, temozolomide] | did not change the levels of LDH | > 800 | ≤ 40 | 444 ± 60 | 276 ± 7 | 
[CH3][Hg][Cl] [methylmercury] |  |  |  |  |  | 1.6
